From article PMC8521653 (ACS Medicinal Chemistry Letters, 2021)
Peptide text beside a SMILES is read from it. * marks the point of attachment. Cbz = O=C(OCc1ccccc1)*

Key:
[1] = test system: PREP-catalyzed α-synuclein dimerization in N2A cells; assay: αSyn dimerization, protein fragment complementation assay (PCA) in N2A cells; assay type: cell-based; conditions: for increase of aSyn dimerization compared to DMSO control: 10 µM proteasome inhibitor, positive control, % increase; for activity at 10 µM: Mus musculus, luminescence signal percentage of DMSO control with SEM, N2A cells
Description: The effect of the compounds on autophagy was determined by using GFP-LC3B-RFP expressing HEK-293 cells.[15],[34] The effect on αSyn dimerization was evaluated with a protein fragment complementation assay (PCA) by using N2A cells.[10],[15],[16] The increase in autophagic flux was measured as a decrease in GFP signal due to increased degradation of GFP-LC3B, and the decrease in αSyn dimerization was measured as a decrease in luminescence, both compared with DMSO (Table 1). […] Rapamycin and starvation are known to induce autophagy, lowering the fluorescence to 65–70% in our assays, and were therefore used as reference compounds for this. Test compounds were assayed at 10 μM concentration with 0.1% DMSO. A graphical representation of the mean values (± SEM) can be seen in the Supporting Information (Figure S1).
Measuring biological activity […]
α-Synuclein Dimerization. αSyn dimerization was assessed by using PCA, which was carried out as described previously in Kilpeläinen et al.1 In short, N2A cells were seeded on poly-L-lysine-coated 96-well plates (Isoplate™ white wall, PerkinElmer Life Sciences) at the density of 13 000 cells/well. 24 h post-plating, reporter plasmids were transfected with 100 ng of total plasmid DNA per well. N2A cells were transfected with 25 ng of both αSyn-Gluc1 and αSyn-Gluc2 and 50 ng mock-plasmid or non-tagged human PREP expression plasmid 50 ng/well. Lipofectamine 3000 (Thermo Fischer Scientific) was used as the transfection reagent. 100 µL normal growth medium was added to all wells at 24 h post-transfection. 48 hours post-transfection medium was changed to phenol red free DMEM without serum containing the tested compounds at 10 µM concentration, with 0,1% DMSO as vehicle control. Proteasome inhibitors lactacystin (AG Scientific) at 10 µM and MG-132 (Enzo Life Sciences) at 10 µM served as a positive control. The PCA signal was assessed by injecting 25 µL of native coelenterazine (Nanolight Technology) in phenol red free DMEM per well (final concentration 6 µM). The emitted luminescence was read using Varioskan LUX multimode microplate reader (Thermo Scientific). For each experimental condition, 4 replicate wells were used in each experiment, and at least 3 separate experiments for each treatment except for 15c which had 2 separate experiments. […]

[2] = biological target: T1, purified recombinant porcine PREP (Sus scrofa, UniProt P23687); assay: Inhibition of the proteolytic activity of PREP, microplate assay with Suc-Gly-Pro-AMC substrate; assay type: biochemical; conditions: for IC50: Suc-Gly-Pro-AMC, 30 °C, pH 7.0, 95% CI in brackets; for PREP activity at 1 nM inhibitor concentration compared to control: remaining activity
T1 construct: made in house; host or cells: E. coli
Description: Inhibition of the proteolytic activity (IC50) of PREP was determined using purified recombinant porcine PREP[25] as previously described.[16]
Measuring biological activity
Inhibitory Activity. The IC 50 values for compounds were determined in the microplate assay procedure described in Kilpeläinen et al.1 Porcine PREP cDNA was expressed in E.coli cells and purified as described in Venäläinen et al.3 The enzyme dilution was preincubated with 0.1 M sodium–potassium phosphate buffer (75 µL, pH 7.0) containing the compounds at desired concentrations in 30 °C for 30 min. The final concentration of the compounds in the assay mixture varied from 1 mM-1 nM and the final concentration of the enzyme was approximately 0.1 nM as measured by Bradford´s method. The enzyme reaction was carried out by adding 25 µL of 4 mM Suc-Gly-Pro-AMC substrate dissolved in 0.1 M sodium–potassium phosphate buffer (pH 7.0) into the assay mixture and incubating at 30° C for 60 min. The reaction was terminated by adding […] of 1 M sodium acetate buffer (pH 4.2). Formation of AMC was measured with Victor2 multilabel counter (PerkinElmer; excitation/emission 360 nm/ 460 nm), with a standard curve of 0.1-5 nM AMC in 0.1 M sodium–potassium phosphate buffer present. All activity measurements were made at least in triplicate. The inhibitory activities (percent of control) were plotted against the log concentration of the compound, and the IC50-value was determined by non-linear regression utilizing GraphPad Prism 7.0 software. […]

[3] = test system: GFP-LC3B-RFP expressing HEK-293 cells; assay: Autophagic flux, GFP signal in GFP-LC3B-RFP expressing HEK-293 cells; assay type: cell-based; conditions: for activity at 10 µM: Homo sapiens, HEK293, 24 h, GFP signal percentage of DMSO control with SEM, HEK-293 cells, read-out: autophagy at 10 μM (%); for activity at 10 µM / effect on autophagy (in words): 10 μM

T1 sequence (P23687 whole entry): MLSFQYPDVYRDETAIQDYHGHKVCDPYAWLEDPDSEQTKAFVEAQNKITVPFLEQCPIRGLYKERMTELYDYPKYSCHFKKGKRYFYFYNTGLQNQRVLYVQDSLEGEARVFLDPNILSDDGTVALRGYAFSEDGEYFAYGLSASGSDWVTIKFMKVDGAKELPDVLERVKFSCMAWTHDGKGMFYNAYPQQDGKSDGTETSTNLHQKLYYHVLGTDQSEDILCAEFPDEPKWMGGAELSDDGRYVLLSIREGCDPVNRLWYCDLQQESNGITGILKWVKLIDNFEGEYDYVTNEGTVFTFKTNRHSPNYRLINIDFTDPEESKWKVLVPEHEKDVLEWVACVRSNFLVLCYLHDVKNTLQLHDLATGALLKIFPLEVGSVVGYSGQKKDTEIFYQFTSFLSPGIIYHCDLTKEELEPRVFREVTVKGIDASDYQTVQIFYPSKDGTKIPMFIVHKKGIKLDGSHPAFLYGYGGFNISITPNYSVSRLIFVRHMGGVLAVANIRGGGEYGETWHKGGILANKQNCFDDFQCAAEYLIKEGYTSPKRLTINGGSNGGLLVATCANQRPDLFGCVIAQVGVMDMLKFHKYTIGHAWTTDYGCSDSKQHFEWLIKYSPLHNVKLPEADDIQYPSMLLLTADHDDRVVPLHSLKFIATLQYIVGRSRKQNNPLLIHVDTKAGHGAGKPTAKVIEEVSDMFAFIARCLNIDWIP

SMILES	IC50 ([2]; recombinant porcine PREP)	activity at 10 µM ([1]; 10 μM)	activity at 10 µM [3]	effect on αSyn dimerization (in words) ([1]; 10 μM)	effect on autophagy (in words) [3]	also measured
CC(=O)N[C@@H](CSC(=O)[C@]1([C@@H](O)C(C)C)NC(=O)[C@H](C)[C@@H]1O)C(=O)O [lactacystin, reference compound]	–	–	–	–	–	increase of aSyn dimerization compared to DMSO control ([1]; PCA): 32%
O=C(CCCCc1ccccc1)N1CCC[C@H]1C(=O)N1CCC[C@H]1c1nnn[nH]1 [Compound 16a]	770 nM	102%	98%	–	–	–
O=C(CCc1ccccc1)N1CCC[C@H]1C(=O)N1CCC[C@H]1c1nnn[nH]1 [Compound 15a]	1000 nM	116%	96%	–	–	–
O=C(CCCc1cccs1)N1CCC[C@H]1C(=O)N1CCC[C@H]1c1nnn[nH]1 [Compound 17a]	94 nM	87%	87%	maintained some activity on αSyn dimerization	slightly improved the activity in inducing autophagy	–
CO/C1=C\C(C)=C\[C@@H](C)[C@@H](O)[C@@H](C)C/C(C)=C/C=C/[C@H](OC)[C@@H]([C@@H](C)[C@@H](O)[C@H](C)[C@@]2(O)C[C@@H](O)[C@H](C)[C@@H](C(C)C)O2)OC1=O [bafilomycin A1, reference compound]	–	–	–	–	–	increase in autophagic flux assay GFP signal compared to DMSO control ([3]; 20 nM, autophagy inhibitor control, % increase): 40%
CN(CC(=O)N1CCC[C@H]1c1nnn[nH]1)C(=O)CCc1ccccc1 [Compound 15c]	–	95%	95%	–	–	–
CO[C@H]1C[C@@H]2CC[C@@H](C)[C@@](O)(O2)C(=O)C(=O)N2CCCC[C@H]2C(=O)O[C@H]([C@H](C)C[C@@H]2CC[C@@H](O)[C@H](OC)C2)CC(=O)[C@H](C)/C=C(\C)[C@@H](O)[C@@H](OC)C(=O)[C@H](C)C[C@H](C)/C=C/C=C/C=C/1C [rapamycin, reference compound]	–	–	–	–	–	decrease in autophagic flux assay GFP signal compared to DMSO control ([3]; 0.5 µM, positive control, % decrease): 34%; fluorescence (GFP signal) relative to DMSO control ([3]; reference for autophagy induction, in our assays): 65–70%
C[C@H](NC(=O)CCCc1ccccc1)C(=O)N1CCC[C@H]1c1nnc[nH]1 [Compound 20b]	–	110%	91%	–	–	–
Cn1nnc([C@@H]2CCCN2C(=O)[C@@H]2CCCN2C(=O)CCCc2ccccc2)n1 [Compound 19a]	–	101%	85%	lost the activity on αSyn dimerization	capable of inducing autophagy	–
C[C@H](NC(=O)CCc1ccccc1)C(=O)N1CCC[C@H]1c1nnn[nH]1 [Compound 15b]	3900 nM	98%	90%	–	–	–
O=C(CCCc1ccccc1)N1CCC[C@H]1C(=O)N1CCC[C@H]1c1ccn[nH]1 [Compound 30a]	–	99%	89%	no activity on αSyn dimerization	some minor activity in modulating autophagy	IC50 value (in words) ([2]; recombinant porcine PREP): micromolar range
O=C(CCCc1ccccc1)N1CCC[C@H]1C(=O)N1CCC[C@H]1c1nnc[nH]1 [Compound 20a]	–	96%	87%	no activity on αSyn dimerization	some minor activity in modulating autophagy	–
O=C(CCCc1ccccc1)N1CCC[C@H]1C(=O)N1CCC[C@H]1c1ncc[nH]1 [Compound 27a]	< 1 nM	72%	96%	–	no effect on autophagy	PREP activity at 1 nM inhibitor concentration compared to control [2]: 25%; decrease of aSyn dimerization compared to DMSO control ([1]; 10 μM, PCA, Figure S1A, % decrease): 28%
C[C@H](NC(=O)CCCc1ccccc1)C(=O)N1CCC[C@H]1c1ncc[nH]1 [Compound 27b]	2100 nM	110%	106%	did not retain either of the activities	did not retain either of the activities	–
O=C(CCCCc1ccccc1)N1CCC[C@H]1C(=O)N1CCC[C@H]1c1ncc[nH]1 [Compound 28a]	< 1 nM	110%	102%	–	–	PREP activity at 1 nM inhibitor concentration compared to control [2]: 20%
O=C(c1ncc[nH]1)[C@@H]1CCCN1C(=O)[C@@H]1CCCN1C(=O)CCCc1ccccc1 [Compound 2a, reference compound]	< 1 nM	99%	95%	lack of activity	lack of activity	PREP activity at 1 nM inhibitor concentration compared to control [2]: 43%
O=C(CCCc1ccccc1)N1CCC[C@H]1C(=O)N1CCC[C@H]1c1cnc[nH]1 [Compound 29a]	44 nM	98%	92%	no activity on αSyn dimerization	some minor activity in modulating autophagy	–
O=C(CCCc1ccccc1)N1CCC[C@H]1C(=O)N1CCC[C@H]1c1cnn[nH]1 [Compound 25a]	1100 nM	104%	93%	–	–	–
C[C@H](NC(=O)CCCCc1ccccc1)C(=O)N1CCC[C@H]1c1nnn[nH]1 [Compound 16b]	5000 nM	92%	94%	–	–	–
CC(C)C[C@@H](C=O)NC(=O)[C@H](CC(C)C)NC(=O)[C@H](CC(C)C)NC(=O)OCc1ccccc1 [MG-132, reference compound] (Cbz-Leu-Leu-Leu-aldehyde)	–	–	–	–	–	increase of aSyn dimerization compared to DMSO control ([1]; PCA): 29%
Cn1nnnc1[C@@H]1CCCN1C(=O)[C@@H]1CCCN1C(=O)CCCc1ccccc1 [Compound 18a]	520000 nM	105%	88%	lost the activity on αSyn dimerization	capable of inducing autophagy	–
O=C(CCc1ccccc1)N1CCC[C@H]1C(=O)N1CCC[C@H]1c1ncc[nH]1 [Compound 26a]	< 1 nM	89%	102%	still retaining some modulating activity	–	PREP activity at 1 nM inhibitor concentration compared to control [2]: 41%
